Blank lines part the entries; values can stand above or below the molecule they belong to.
Key:
[1] = target: laminin/nidogen binding (radioactively labeled nidogen to laminin P1-coated tubes); assay: coated-tube inhibition assay, sequential inhibition; parameters: species or system human
Description: (§1) The inhibitory activity of the affinity-purified antibodies can be identified by means of a coated-tube assay which measures the binding of radioactively labeled nidogen to (human placental) laminin P1-coated tubes in the presence of the antibodies.
(§2) Recombinantly produced human nidogen (35 μg, for description of the clone and culturing and purification conditions, see Mayer, U. et al. (1995) Eur. J. Biochem. 227:681-686) was dissolved in 250 μl of PBS, and 0.405 mCi (=15 Mbq) of Na iodide (^125I) solution (=1.55 μl, Nordion Europe), 10 μl of 0.5 M Na phosphate, pH 7.4, and 40 μg of chloramine T (N-chloro-4-toluenesulfonamide sodium salt, Merck) in 100 μl of 0.05 M Na phosphate, pH 7.4, were added to the solution. The reaction took place for 60 seconds at room temperature and was stopped by adding a solution of 40 μg of Na metabisulfite (Riedel-de-Haen) in 100 μl of 0.05 M Na phosphate, pH 7.4. This addition was made in at most 30 seconds and 900 μl of 1% BSA (Sigma) in PBS were then added to the mixture. Free radioactivity and excess salts were separated off by means of molecular sieve chromatography using a PD 10 column (Pharmacia). The iodinated nidogen, which was eluted in PBS, was pooled and diluted with 1% BSA/0.05 M Na phosphate/0.01% Na azide, pH 7.4, such that a concentration of 50 ng/ml was obtained. […]
Inhibition assay using “laminin-mimetic” structures (sequential inhibition) 200 μl of iodinated nidogen (approx. 10 ng, approx. 40,000 counts per min) and 200 μl of the inhibitor (e.g. peptides which can be derived from the laminin γ1 III 4 domain) or standards (laminin γ1 III 3-5) were shaken in a reaction vessel at room temperature. […] Finally, the solution was tipped out and the tubes were washed twice with 1 ml of PBS/0.04% Tween 20, after which the bound radioactivity (nidogen) was measured in a gamma counter. The quantity of bound nidogen in the solutions containing inhibitor was related to that of the nidogen when no inhibitor was added. […]

[2] = target: laminin/nidogen binding (radioactively labeled nidogen to laminin P1-coated tubes); assay: coated-tube inhibition assay, simultaneous inhibition; parameters: species or system human; conditions: simultaneous assay type
Description: as §1, §2
Target sequence in this assay (P11047 773-934 limits assumed, one chain of several): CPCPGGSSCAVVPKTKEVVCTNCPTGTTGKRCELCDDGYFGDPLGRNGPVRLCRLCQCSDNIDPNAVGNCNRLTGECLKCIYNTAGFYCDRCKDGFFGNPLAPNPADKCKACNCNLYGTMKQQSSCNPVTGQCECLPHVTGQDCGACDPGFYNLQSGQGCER

laminin P1 = assay: BIAcore binding kinetics on immobilized laminin P1; conditions: 20 μg/ml; matrix with 4000 RU laminin P1
laminin P1, sequence (P11047 773-934 limits assumed): as the sequence (P11047 773-934 limits assumed, one chain of several) above
Text: Biospecific interactions can be monitored on-line using the BIAcore® system from Pharmacia Biosensor. The principle of the measurement is based on an optical phenomenon (surface plasmon resonance) which is affected by the mass which is bound on a gold film. Expressed in simple terms, the system is miniaturized affinity chromatography on a gold sensor surface. The quantity of specifically bound ligand can be depicted visually in the form of a resonance signal (Chaiken, I. et al. (1992) Anal. Biochem. 201:197-201; Karisson, R. et al. (1992) in: Structure of Antigens; (Ed.: van Regenmortel). pp. 127-148; CRC Press, Boca Raton, Fla.)
Laminin P1 was immobilized, at a concentration of 200 μg/ml in 10 mM Na acetate, pH 4.0, on the sensor chip in accordance with the instructions in the user manual. A matrix containing 4000 RU of bound laminin P1 is obtained. A double impulse of in each case 4 μl of 100 mM HCl can be carried out in order to regenerate the affinity matrix.
The fact that it was still not possible to observe any transition to the equilibrium state after 1400 seconds can be an expression of the fact that the specific peptide sequence of laminin P1 which is responsible for binding nidogen was readily available to the antibodies. The antibodies bound to this sequence irrespective of whether it was in the biologically active conformation or in a different conformation. […]

[3] = sequential assay type, read-out: IC50% inhibition of laminin/nidogen binding

IC50 ([1]; in the assay described here, shortened incubation times, variant not stated, read-out: IC50%): 60 µM | IC50 [1, 3]: 60 µM | IC50 [2]: 60 µM
Molecule: DNIDPNAVGNL [(1), peptide used for immunization]

IC50 [1, 3]: 20 µM | IC50 [2]: 20 µM
Molecule: DNIDPNAVGNLKCIYNTAGFYCDR [(2), peptide used for immunization]

bound amount at transition to the saturation phase (laminin P1): 600 RU
B1: nidogen: recombinantly produced human nidogen, 160 kDa glycoprotein (protein, UniProt P14543 29-1247, looked up)
Nidogen-1: LSRQELFPFGPGQGDLELEDGDDFVSPALELSGALRFYDRSDIDAVYVTTNGIIATSEPPAKESHPGLFPPTFGAVAPFLADLDTTDGLGKVYYREDLSPSITQRAAECVHRGFPEISFQPSSAVVVTWESVAPYQGPSRDPDQKGKRNTFQAVLASSDSSSYAIFLYPEDGLQFHTTFSKKENNQVPAVVAFSQGSVGFLWKSNGAYNIFANDRESVENLAKSSNSGQQGVWVFEIGSPATTNGVVPADVILGTEDGAEYDDEDEDYDLATTRLGLEDVGTTPFSYKALRRGGADTYSVPSVLSPRRAATERPLGPPTERTRSFQLAVETFHQQHPQVIDVDEVEETGVVFSYNTDSRQTCANNRHQCSVHAECRDYATGFCCSCVAGYTGNGRQCVAEGSPQRVNGKVKGRIFVGSSQVPIVFENTDLHSYVVMNHGRSYTAISTIPETVGYSLLPLAPVGGIIGWMFAVEQDGFKNGFSITGGEFTRQAEVTFVGHPGNLVIKQRFSGIDEHGHLTIDTELEGRVPQIPFGSSVHIEPYTELYHYSTSVITSSSTREYTVTEPERDGASPSRIYTYQWRQTITFQECVHDDSRPALPSTQQLSVDSVFVLYNQEEKILRYALSNSIGPVREGSPDALQNPCYIGTHGCDTNAACRPGPRTQFTCECSIGFRGDGRTCYDIDECSEQPSVCGSHTICNNHPGTFRCECVEGYQFSDEGTCVAVVDQRPINYCETGLHNCDIPQRAQCIYTGGSSYTCSCLPGFSGDGQACQDVDECQPSRCHPDAFCYNTPGSFTCQCKPGYQGDGFRCVPGEVEKTRCQHEREHILGAAGATDPQRPIPPGLFVPECDAHGHYAPTQCHGSTGYCWCVDRDGREVEGTRTRPGMTPPCLSTVAPPIHQGPAVPTAVIPLPPGTHLLFAQTGKIERLPLEGNTMRKTEAKAFLHVPAKVIIGLAFDCVDKMVYWTDITEPSIGRASLHGGEPTTIIRQDLGSPEGIAVDHLGRNIFWTDSNLDRIEVAKLDGTQRRVLFETDLVNPRGIVTDSVRGNLYWTDWNRDNPKIETSYMDGTNRRILVQDDLGLPNGLTFDAFSSQLCWVDAGTNRAECLNPSQPSRRKALEGLQYPFAVTSYGKNLYFTDWKMNSVVALDLAISKETDAFQPHKQTRLYGITTALSQCPQGHNYCSVNNGGCTHLCLATPGSRTCRCPDNTLGVDCIEQK
